Laboratory results taken from patent US20260184662A1, “COMPOSITE OF ACID AND SALT, AND PREPARATION METHOD THEREFOR” (NANJING NUTRABUILDING BIO-TECH CO., LTD., priority 2022, published 2026).
Read-outs that look alike come from different tables or passages of the source.

Tests used:
[1] = Determination of moisture contents with KF moisture meter at different time points; assay type: physicochemical; details: temperature 23° C., humidity 92.5%
From the text: (§1) For R-3-hydroxybutyric acid, potassium R-3-hydroxybutyrate, mixture of R-3-hydroxybutyric acid and potassium R-3-hydroxybutyrate, and R-3-hydroxybutyric acid·potassium R-3-hydroxybutyrate complex of Example 1, under a certain condition, KF moisture meter was used to determine the moisture contents at different time points.
as §1, with “3-hydroxybutyric” for “R-3-hydroxybutyric”, “3-hydroxybutyrate,” for “R-3-hydroxybutyrate,”, “3-hydroxybutyrate” for “R-3-hydroxybutyrate”, “7,” for “1,”
as §1, with “S-3-hydroxybutyric” for “R-3-hydroxybutyric”, “S-3-hydroxybutyrate,” for “R-3-hydroxybutyrate,”, “S-3-hydroxybutyrate” for “R-3-hydroxybutyrate”, “13,” for “1,”
as §1, with “calcium” for “potassium”, “acid·calcium” for “acid·potassium”, “19,” for “1,”
(§2) For 3-hydroxybutyric acid, calcium 3-hydroxybutyrate, mixture of 3-hydroxybutyric acid and calcium 3-hydroxybutyrate, and 3-hydroxybutyric acid·calcium 3-hydroxybutyrate complex of Example 25, under a certain condition, KF moisture meter was used to determine the moisture contents at different time points.
as §2, with “S-3-hydroxybutyric” for “3-hydroxybutyric”, “S-3-hydroxybutyrate,” for “3-hydroxybutyrate,”, “S-3-hydroxybutyrate” for “3-hydroxybutyrate”, “31,” for “25,”
as §1, with “magnesium” for “potassium”, “acid·magnesium” for “acid·potassium”, “37,” for “1,”
as §2, with “magnesium” for “calcium”, “acid·magnesium 3-hydroxy butyrate” for “acid·calcium 3-hydroxybutyrate”, “43,” for “25,”
For S-3-hydroxybutyric acid, magnesium S-3-hydroxybutyrate, mixture of S-3-hydroxybutyric acid and magnesium S-3-hydroxybutyrate, and S-3-hydroxybutyric acid·magnesium S-3-hydroxybutyrate complex of Example 49, under a certain condition, KF moisture meter was used to determine the moisture contents at different time points.
(§3) For R-3-hydroxypentanoic acid, sodium R-3-hydroxypentanoate, mixture of R-3-hydroxypentanoic acid and sodium R-3-hydroxypentanoate, and R-3-hydroxypentanoic acid·sodium R-3-hydroxypentanoate complex of Example 55, under a certain condition, KF moisture meter was used to determine the moisture contents at different time points.
as §3, with “3-hydroxypentanoic” for “R-3-hydroxypentanoic”, “3-hydroxypentanoate,” for “R-3-hydroxypentanoate,”, “3-hydroxypentanoate” for “R-3-hydroxypentanoate”, “61,” for “55,”
as §3, with “S-3-hydroxypentanoic” for “R-3-hydroxypentanoic”, “S-3-hydroxypentanoate,” for “R-3-hydroxypentanoate,”, “S-3-hydroxypentanoate” for “R-3-hydroxypentanoate”, “67,” for “55,”

[2] = Stability of complexes at 30-80° C.; assay type: physicochemical
From the text: For R-3-hydroxybutyric acid, potassium R-3-hydroxybutyrate, mixture of R-3-hydroxybutyric acid and potassium R-3-hydroxybutyrate, and R-3-hydroxybutyric acid·potassium R-3-hydroxybutyrate complex of Example 1, […]
For 3-hydroxybutyric acid, potassium 3-hydroxybutyrate, mixture of 3-hydroxybutyric acid and potassium 3-hydroxybutyrate, and 3-hydroxybutyric acid·potassium 3-hydroxybutyrate complex of Example 7, […]
For S-3-hydroxybutyric acid, potassium S-3-hydroxybutyrate, mixture of S-3-hydroxybutyric acid and potassium S-3-hydroxybutyrate, and S-3-hydroxybutyric acid·potassium S-3-hydroxybutyrate complex of Example 13, […]
For R-3-hydroxybutyric acid, calcium R-3-hydroxybutyrate, mixture of R-3-hydroxybutyric acid and calcium R-3-hydroxybutyrate, and R-3-hydroxybutyric acid·calcium R-3-hydroxybutyrate complex of Example 19, […]
For 3-hydroxybutyric acid, calcium 3-hydroxybutyrate, mixture of 3-hydroxybutyric acid and calcium 3-hydroxybutyrate, and 3-hydroxybutyric acid·calcium 3-hydroxybutyrate complex of Example 25, […]
For S-3-hydroxybutyric acid, calcium S-3-hydroxybutyrate, mixture of S-3-hydroxybutyric acid and calcium S-3-hydroxybutyrate, and S-3-hydroxybutyric acid·calcium S-3-hydroxybutyrate complex of Example 31, […]
For R-3-hydroxybutyric acid, magnesium R-3-hydroxybutyrate, mixture of R-3-hydroxybutyric acid and magnesium R-3-hydroxybutyrate, and R-3-hydroxybutyric acid·magnesium R-3-hydroxybutyrate complex of Example 37, […]
For 3-hydroxybutyric acid, magnesium 3-hydroxybutyrate, mixture of 3-hydroxybutyric acid and magnesium 3-hydroxybutyrate, and 3-hydroxybutyric acid·magnesium 3-hydroxybutyrate complex of Example 43, […]
For S-3-hydroxybutyric acid, magnesium S-3-hydroxybutyrate, mixture of S-3-hydroxybutyric acid and magnesium S-3-hydroxybutyrate, and S-3-hydroxybutyric acid·magnesium S-3-hydroxybutyrate complex of Example 49, […]
For R-3-hydroxypentanoic acid, sodium R-3-hydroxypentanoate, mixture of R-3-hydroxypentanoic acid and sodium R-3-hydroxypentanoate, and R-3-hydroxypentanoic acid·sodium R-3-hydroxypentanoate complex of Example 55, […]
For 3-hydroxypentanoic acid, sodium 3-hydroxypentanoate, mixture of 3-hydroxypentanoic acid and sodium 3-hydroxypentanoate, and 3-hydroxypentanoic acid·sodium 3-hydroxypentanoate complex of Example 61, […]
For S-3-hydroxypentanoic acid, sodium S-3-hydroxypentanoate, mixture of S-3-hydroxypentanoic acid and sodium S-3-hydroxypentanoate, and S-3-hydroxypentanoic acid·sodium S-3-hydroxypentanoate complex of Example 67, […]

Structure (SMILES)	moisture content (%) ([1]; 30 min)	moisture content (%) ([1]; 1 h)	moisture content (%) ([1]; 2 h)	moisture content (%) ([1]; 4 h)	moisture content (%) ([1]; 6 h)	moisture content (%) ([1]; 7 h)	moisture content (%) ([1]; 11 h)	moisture content (%) ([1]; 22 h)	Stability ([2]; 30° C.)	Stability ([2]; 40° C.)	Stability ([2]; 50° C.)	Stability ([2]; 60° C.)	Stability ([2]; 80° C.)	Stability [2]
CC(O)CC(=O)O (centres unmarked) [3-hydroxybutyric acid]	1.32%	2.37%	4.15%	6.59%	9.68%	10.71%	17.33%	33.51%	–	–	–	–	–	–
CC(O)CC(=O)O.CC(O)CC(=O)[O-].CC(O)CC(=O)[O-].[Ca+2] (centres unmarked) [3-hydroxybutyric acid·calcium 3-hydroxybutyrate]	0.56%	1.12%	1.86%	3.19%	4.68%	5.45%	8.72%	14.43%	unchanged	unchanged	unchanged	unchanged	melted	–
CC(O)CC(=O)O.CC(O)CC(=O)[O-].CC(O)CC(=O)[O-].[Mg+2] (centres unmarked) [3-hydroxybutyric acid·magnesium 3-hydroxybutyrate]	0.56%	0.97%	1.82%	3.26%	4.62%	5.57%	8.75%	14.68%	unchanged	unchanged	unchanged	Unchanged	melted	–
CC(O)CC(=O)O.CC(O)CC(=O)[O-].[K+] (centres unmarked) [3-hydroxybutyric acid·potassium 3-hydroxybutyrate]	0.68%	1.28%	1.93%	3.68%	5.92%	6.84%	9.67%	19.25%	unchanged	unchanged	Unchanged	unchanged	melted	–
CCC(O)CC(=O)O (centres unmarked) [3-hydroxypentanoic acid]	1.10%	1.98%	3.46%	5.49%	8.07%	8.93%	14.44%	27.93%	–	–	–	–	–	–
CCC(O)CC(=O)O.CCC(O)CC(=O)[O-].[Na+] (centres unmarked) [3-hydroxypentanoic acid·sodium 3-hydroxypentanoate]	0.51%	0.98%	1.71%	2.82%	4.16%	4.60%	7.28%	14.69%	–	–	–	–	–	unchanged
C[C@H](O)CC(=O)[O-].C[C@H](O)CC(=O)[O-].[Ca+2] [Calcium S-3-hydroxybutyrate, calcium S-3-hydroxybutyrate]	0.88%	1.92%	2.25%	4.18%	5.24%	6.25%	10.34%	17.55%	–	–	–	–	–	–
C[C@H](O)CC(=O)[O-].C[C@H](O)CC(=O)[O-].[Mg+2] [Magnesium S-3-hydroxybutyrate, magnesium S-3-hydroxybutyrate]	0.88%	1.28%	2.43%	4.22%	6.37%	8.24%	12.35%	18.54%	–	–	–	–	–	–
CC(O)CC(=O)[O-].[K+] (centres unmarked) [Potassium 3-hydroxybutyrate, potassium 3-hydroxybutyrate]	1.14%	1.93%	3.22%	4.98%	7.77%	8.34%	16.82%	32.86%	–	–	–	–	–	–
C[C@@H](O)CC(=O)[O-].[K+] [Potassium R-3-hydroxybutyrate, potassium R-3-hydroxybutyrate]	1.04%	1.91%	3.19%	4.93%	7.65%	8.24%	16.72%	32.68%	–	–	–	–	–	–
C[C@H](O)CC(=O)[O-].[K+] [Potassium S-3-hydroxybutyrate, potassium S-3-hydroxybutyrate]	1.06%	1.92%	3.22%	4.97%	7.55%	8.34%	16.82%	32.75%	–	–	–	–	–	–
C[C@@H](O)CC(=O)O [R-3-hydroxybutyric acid]	1.13%	2.25%	3.96%	6.46%	9.52%	10.56%	17.22%	33.34%	–	–	–	–	–	–
CC[C@@H](O)CC(=O)O [R-3-hydroxypentanoic acid]	0.94%	1.88%	3.30%	5.38%	7.93%	8.80%	14.35%	27.78%	–	–	–	–	–	–
CC[C@H](O)CC(=O)O [S-3-hydroxypentanoic acid]	1.03%	1.90%	3.38%	5.27%	7.94%	8.85%	14.23%	27.46%	–	–	–	–	–	–
